Here are results for twelve compounds from PubChem BioAssay (NCI).

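Assay format: 96-well plates, 48-hour exposure. The concentration for 50% growth inhibition is given as GI50. TGI is the concentration that stops growth completely.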

Some test systems named below: K-562 leukemia; SK-MEL-2 melanoma; SK-MEL-5 melanoma; SW-620 colon; OVCAR-4 ovarian; MDA-MB-435; KM12 colon; UACC-257 melanoma.
Experiment in all cases: NCI anticancer screen, dose series, 48 h

For the compound `COc1cc(C(=O)N/N=C/c2ccc(N(C)C)cc2)cc(OC)c1OC`, the GI50 in the assay with K-562 leukemia was 353 nM; in the assay with SK-MEL-2 melanoma it was 1150 nM; in the assay on SK-MEL-5 melanoma, 198 nM; in the assay with SW-620 colon it was 424 nM; in the assay on OVCAR-4 ovarian, 824 nM; with MDA-MB-435 it was 74.3 nM. In addition, in the assay with KM12 colon, the GI50 was 428 nM. The TGI in the assay with K-562 leukemia was more than 100 µM; with SK-MEL-2 melanoma, more than 81.3 µM; with SK-MEL-5 melanoma it was 1.16 µM; with SW-620 colon, more than 100 µM; in the assay with OVCAR-4 ovarian, more than 100 µM; with MDA-MB-435, 0.307 µM. Moreover, the TGI in the assay on KM12 colon was 26.4 µM; with UACC-257 melanoma, more than 100 µM.

In the case of `CC(=O)Oc1ccc(/C(=C(\C)c2ccc(Cl)cc2)c2ccc(OCCN3CCCCC3)cc2)cc1`, the GI50 in the assay with K-562 leukemia is 1210 nM; in the assay on SK-MEL-2 melanoma it was 1850 nM; in the assay on SK-MEL-5 melanoma it was 1690 nM; in the assay on SW-620 colon, 1850 nM; in the assay on OVCAR-4 ovarian, 1930 nM; in the assay on MDA-MB-435, 1700 nM. For the same compound, the GI50 was 1770 nM in the assay on KM12 colon and 2050 nM with UACC-257 melanoma. The TGI turned out to be 3.59 µM in the assay with K-562 leukemia; 3.56 µM in the assay with SK-MEL-2 melanoma; 3.07 µM in the assay on SK-MEL-5 melanoma; 3.93 µM in the assay on SW-620 colon; 5.43 µM in the assay with OVCAR-4 ovarian; 3.26 µM in the assay with MDA-MB-435. Further, the TGI in the assay on KM12 colon came out at 3.97 µM; in the assay with UACC-257 melanoma, 4.11 µM.

In the case of `Oc1cc2ccccc2c(-c2c(O)c(O)cc3ccccc23)c1O`, the GI50 with K-562 leukemia was 73.8 nM; with SK-MEL-2 melanoma, 2740 nM; with SK-MEL-5 melanoma, 1100 nM; with SW-620 colon, 3490 nM; with OVCAR-4 ovarian, 2300 nM; with MDA-MB-435 it was 1170 nM. The GI50 in the assay with KM12 colon is 2810 nM; in the assay with UACC-257 melanoma, 3240 nM. Also, the TGI with SK-MEL-2 melanoma is 15.5 µM; in the assay with SK-MEL-5 melanoma, 4.49 µM; in the assay with SW-620 colon, 26.9 µM; in the assay with OVCAR-4 ovarian, 34.3 µM; in the assay with MDA-MB-435 it was 12.4 µM; in the assay on KM12 colon, 17.4 µM. Besides, in the assay with UACC-257 melanoma, the TGI is 24.3 µM.

Consider `OCc1ccc(N2CCc3ccccc3C2)cc1Cl`, for which the GI50 in the assay with K-562 leukemia is less than 22.4 nM; with SW-620 colon it was less than 21.8 nM; in the assay on OVCAR-4 ovarian it was less than 14.9 nM; in the assay on MDA-MB-435, 23200 nM; with KM12 colon it was 13600 nM. In addition, the TGI was 19 µM in the assay with K-562 leukemia; more than 100 µM with SW-620 colon; 0.0633 µM in the assay on OVCAR-4 ovarian; more than 75.8 µM with MDA-MB-435; 40.1 µM with KM12 colon.

In the case of `COc1cc([N+](=O)[O-])c(OC)cc1-c1nc2sc(Cl)cn2c1/C=N/NC1=NCCN1`, the GI50 in the assay with K-562 leukemia is 3560 nM; in the assay on SK-MEL-2 melanoma, 22900 nM; in the assay on SK-MEL-5 melanoma, 830 nM; in the assay with MDA-MB-435 it was 3650 nM; in the assay with KM12 colon, 833 nM; in the assay on UACC-257 melanoma, 2230 nM. Besides, the TGI in the assay on K-562 leukemia was more than 100 µM; with SK-MEL-2 melanoma, more than 100 µM; in the assay on SK-MEL-5 melanoma, 2.19 µM; in the assay with MDA-MB-435, more than 100 µM; with KM12 colon, 2.49 µM; with UACC-257 melanoma it was 4.43 µM.

In the case of `O=C(/C(=C\c1ccc(Cl)cc1)c1ccccc1)c1ccccc1`, the TGI was more than 100 µM in the assay with K-562 leukemia; 75 µM with SK-MEL-2 melanoma; more than 100 µM in the assay on SW-620 colon; more than 100 µM in the assay on OVCAR-4 ovarian; 74.3 µM in the assay on KM12 colon; more than 100 µM in the assay on UACC-257 melanoma.

Turning to `CCCCCCCCn1ccc2cc(NC(=O)Cn3cc(CN4CCCCC4)nn3)ccc21`, the GI50 is 1900 nM in the assay on SK-MEL-2 melanoma; 1770 nM in the assay with SK-MEL-5 melanoma; 1840 nM in the assay on SW-620 colon; 3660 nM in the assay on OVCAR-4 ovarian; 1680 nM in the assay with MDA-MB-435; 2230 nM in the assay on KM12 colon. The GI50 in the assay with UACC-257 melanoma was 2010 nM. In addition, the TGI is 3.68 µM with SK-MEL-2 melanoma; 3.16 µM with SK-MEL-5 melanoma; 3.59 µM in the assay with SW-620 colon; 14.3 µM in the assay on OVCAR-4 ovarian; 3.15 µM in the assay on MDA-MB-435; 5 µM in the assay with KM12 colon. In the assay on UACC-257 melanoma, the TGI worked out at 4.45 µM.

Turning to `CC(=O)c1cc(C(=O)c2ccc3c(c2)Sc2ccccc2N3)c2cc(C)ccn12`, the GI50 is 41 nM in the assay on K-562 leukemia; 81400 nM in the assay on SK-MEL-2 melanoma; 122 nM with SK-MEL-5 melanoma; 55.9 nM with SW-620 colon; 1290 nM in the assay on OVCAR-4 ovarian; 42.5 nM in the assay on KM12 colon. Besides, the TGI was more than 100 µM with K-562 leukemia; more than 100 µM in the assay on SK-MEL-2 melanoma; 5.56 µM in the assay with SK-MEL-5 melanoma; more than 100 µM in the assay on SW-620 colon; more than 100 µM in the assay on OVCAR-4 ovarian; more than 100 µM with KM12 colon.

Turning to `Clc1cc(Cl)cc(N2N=C(c3cccc(Nc4ccncc4)c3)CC2c2ccc3c(c2)OCO3)c1` (centres undefined), the GI50 was 2060 nM with K-562 leukemia; 1770 nM in the assay on SK-MEL-5 melanoma; 1670 nM in the assay with SW-620 colon; 1650 nM in the assay with OVCAR-4 ovarian; 1620 nM in the assay on MDA-MB-435; 1780 nM in the assay with KM12 colon. The TGI was 4.86 µM in the assay with K-562 leukemia; 3.21 µM with SK-MEL-5 melanoma; 3.29 µM in the assay with SW-620 colon; 3.18 µM in the assay on OVCAR-4 ovarian; 3.09 µM in the assay on MDA-MB-435; 3.35 µM in the assay with KM12 colon.

For `COc1ccc(C2C=C(c3ccc4c(c3)OCO4)Oc3c2c(=O)oc2ccccc32)cc1OC` (centres undefined), the TGI with SK-MEL-5 melanoma was more than 100 µM; in the assay with SW-620 colon it was more than 100 µM; with OVCAR-4 ovarian, more than 100 µM; in the assay on MDA-MB-435 it was 0.529 µM; in the assay on KM12 colon, more than 100 µM.

On to `NCC1OC(OC2C(CO)OC(OC3C(O)C(N)CC(N)C3OC3OC(CO)C(O)CC3N)C2O)C(N)C(O)C1OC1OC(CO)C(O)C(O)C1O` (centres undefined), for which the GI50 in the assay on K-562 leukemia, with SK-MEL-2 melanoma, with SK-MEL-5 melanoma, in the assay with SW-620 colon, in the assay with MDA-MB-435 and in the assay with UACC-257 melanoma was more than 50 µg/mL throughout. Further, the TGI in the assay on K-562 leukemia, in the assay with SK-MEL-2 melanoma, in the assay on SK-MEL-5 melanoma, with SW-620 colon, with MDA-MB-435 and in the assay on UACC-257 melanoma was more than 50 µg/mL each time.

Turning to `NCOC(=O)Cc1ccc(Br)cc1`, the TGI in the assay on K-562 leukemia, in the assay on SK-MEL-2 melanoma, in the assay on SK-MEL-5 melanoma, in the assay with SW-620 colon and in the assay on UACC-257 melanoma was more than 100 µM throughout.
